{"source": "patent US20250319139A1", "about": "“METHODS FOR TREATING NEUROINFLAMMATION” (University of Virginia Patent Foundation, priority 2021, published 2025)", "format_in_all_cases": "in vivo, mouse", "key": {"[1]": {"tested_on": "C57BL/6J mice", "test": "Novel object recognition test, young adult mice"}, "[2]": {"tested_on": "C3ar", "test": "C3ar immunofluorescent staining of hippocampus", "conditions": "young adult mice with exercise and surgery; intraperitoneal valeric acid", "description": "The immunofluorescent labeling and quantification of the staining were performed as described before. Briefly, brain was fixed in 4% paraformaldehyde at 4° C. for 24 h and then incubated in 30% sucrose over night at 4° C. before being frozen in optimal cutting temperature compound. Coronal 20-μm thick sections were cut sequentially from Bregma -3 to -6 mm by using a cryostat and mounted on microscope slides. After being washed in Tris-buffered saline (TBS), sections were blocked in 10% donkey serum plus 1% bovine serum albumin (BSA) in TBS containing 0. 3% triton-X 100 for 2 h at room temperature and then incubated at 4° C. overnight with the following primary antibodies: rabbit monoclonal anti-C3 antibody (1:50), goat monoclonal anti-GFAP antibody (1:200), rat monoclonal anti-[…] antibody (1:50) and rabbit monoclonal anti-Iba-1 antibody (1:200). Sections were rinsed in TBS with 0.1% Triton-x 100. […] The quantification was performed as described previously. […] The number of pixels per image with intensity above a predetermined threshold level was considered as a positively stained area for an interested marker and quantified using the Image-pro plus 6.0 (Media Cybernetics, Inc., Rockville, MD, USA) and presented as percentage of positive area in the total area. […] All quantitative analyses were performed in a blinded manner."}, "[3]": {"tested_on": "newly generated brain cells", "test": "BrdU immunofluorescent staining, brain cell genesis", "conditions": "young adult mice with exercise and surgery; intraperitoneal valeric acid", "description": "Seven days after surgery, mice were given 7 consecutive intraperitoneal injections of 80 mg/kg 5′-bromo-2′-deoxyuridine (BrdU) at 12:00 once daily as previously described. Mice were sacrificed 5 days later for harvesting hippocampus. Hippocampus was fixed in 4% paraformaldehyde in 0.1 M phosphate-buffered saline at 4° C. for 24 h and embedded in paraffin. Five-micron thick coronal brain sections were cut sequentially from Bregma −2 to −4 mm. Antigen retrieval was performed by incubating sections with sodium citrate buffer containing 10 mM sodium citrate, 0.05% Tween 20 (pH 6.0) at 95-100° C. for 20 min. DNA denaturation was done by incubating with 1 N HCl on ice for 3 min, 2 N HCL at room temperature for 3 min, and at 37° C. for 6 min. Sections were blocked with 5% donkey serum in phosphate-buffered saline (PBS) containing 0.5% triton-X 100 for 2 h at room temperature. […] Images were acquired with a fluorescence microscope with a charge-coupled device camera (High Mag Olympus BX51) and a LSM710 confocal microscopy system (ZEISS). […] The number of all cells positively stained for an interested marker or the combination of two markers in the sub-granular zone of the dentate gyrus of each section was counted. The quantitative analyses were performed in a blinded manner."}, "[4]": {"tested_on": "IL-17", "test": "ELISA of IL-17 in the serum", "description": "(§1) Mice were weighed and anesthetized with isoflurane at 24 h after MCAO. Blood samples were obtained from the right heart after thoracotomy. Blood was centrifuged (13,000 g, 4° C.) after it had been placed at 4° C. for 2 h for the collection of serum. After the collection of blood, mice were perfused with 4° C. saline for brain tissue harvesting. The cerebral cortex (anteroposterior: −1.5 to 2.5 mm, mediolateral: 1.0 to 3.0 mm) was dissected out. All dissection procedures were performed on ice.\n(§2) IL-10, IL-17, IL-1β and IL-6 in the serum and brain were detected by using ELISA kits (catalog number: M1000B, M1700, MLB00C and D6050, R&D SYSTEM, Inc., Minneapolis, MN, USA) as we described before. The brain tissues were homogenized on ice in the RIPA buffer containing 25 mM Tris-HCl with pH 7.6, 150 mM NaCl, 1% sodium deoxycholate and 0.1% SDS (catalog number: 89901, Thermo Scientific, Rockford, IL, USA) and a protease inhibitor cocktail containing 10 mg/ml aproteinin, 5 mg/ml peptastin, 5 mg/ml leupetin and 1 mM phenylmethane sulfonylfluoride (catalog number: SRE0055, Sigma-Aldrich, St. Louis, MO, USA). The supernatant was collected for ELISA detection after being centrifuged for 20 min (13,000 g, 4° C.) and the protein concentration was determined by the BCA method. Cytokines in the serum and supernatant of brain were detected according to the manufacturer's instruction. The amount of IL-10, IL-17, IL-1β and IL-6 in each sample in the brain was normalized by its protein content."}, "[5]": {"tested_on": "IL-17", "test": "ELISA of IL-17 in the brain", "description": "as §1, §2"}, "[6]": {"conditions": "mice without MCAO, valeric sodium 100 mg/kg intraperitoneal for 7 days"}}}
{"smiles": "CCCCC(=O)O", "note": "[valeric acid]", "values": [{"measurement": "performance in novel object recognition test", "setting": "[1]; 13-week old mice without surgery, intracerebroventricular 4 mg/kg once daily for 4 days (1/50 dose of intraperitoneal injection)", "result": "did not affect the performance"}, {"measurement": "performance in novel object recognition test", "setting": "[1]; young adult mice with exercise and surgery, valeric acid 200 mg/kg intraperitoneal once a week vs normal saline", "result": "abolished"}, {"measurement": "exercise-induced reduction of C3ar in the hippocampus", "setting": "[2]", "result": "this reduction was blocked"}, {"measurement": "exercise attenuation of the decrease of newly generated brain cells", "setting": "[3]", "result": "this attenuation was blocked"}, {"measurement": "IL-17 in the blood", "setting": "[4]; [6]", "result": "increase"}, {"measurement": "IL-17 in the blood", "setting": "[4]; young mice, 100 mg/kg intraperitoneal 1 h before and 6 h after 120-min MCAO, 24 h after MCAO, vs saline", "result": "increased"}, {"measurement": "IL-17 in the brain (cerebral cortex)", "setting": "[5]; [6]", "result": "increase"}, {"measurement": "IL-17 in the brain", "setting": "[5]; young mice with brain ischemia (120-min MCAO), intraperitoneal valeric acid", "result": "did not increase"}]}
